Laboratory results reported in US8785499B2 (priority 2009, dated 2014).

How the values were obtained:
[1] = target: ecNadD (Escherichia coli (strain K12), UniProt P0A752); assay: biochemical; format: biochemical
[2] = target: baNadD (Bacillus anthracis, UniProt C3L5T6); assay: biochemical; format: biochemical
Chain of baNadD (C3L5T6 whole entry, looked up): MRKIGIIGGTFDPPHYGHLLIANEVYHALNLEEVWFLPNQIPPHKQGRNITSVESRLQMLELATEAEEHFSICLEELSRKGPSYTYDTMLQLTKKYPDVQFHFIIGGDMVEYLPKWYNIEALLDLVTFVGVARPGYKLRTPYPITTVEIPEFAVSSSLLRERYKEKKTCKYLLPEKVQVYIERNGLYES

SMILES | […]. coli [1] [%] | […]. anthracis [2] [%]
c1ccc2[nH]c(SCc3cn4ccsc4n3)nc2c1 [compound 143] | 6 | 2
CC1=C(C)CC(C(=O)Nc2ccc(I)cc2)C(C(=O)O)C1 (centres unmarked) [compound 144] | 6 | 65
O=C(Cn1cnc2ccccc2c1=O)Nc1nccs1 [compound 145] | 6 | 0
Cc1nnc(SCC(=O)Nc2ccc(Cl)cn2)[nH]c1=O [compound 146] | 5 | 11
Cc1ccc(C(=O)N/N=C/c2ccc(O)c(I)c2)cn1 [compound 147] | 5 | 12
O=C(O)/C=C/c1ccncc1 [compound 148] | 5 | 4
CCS(=O)(=O)n1nc(-c2ccc(OC)cc2)nc1N [compound 149] | 5 | 0
CSc1ccc(CNc2ccc(S(N)(=O)=O)cc2)cc1 [compound 150] | 5 | 0
O=C(/C=C/c1ccoc1)c1ccccc1O [compound 151] | 5 | 0
O=C(O)C1C2C=CC(C2)C1C(=O)Nc1ccc(Cl)c(Cl)c1 (centres unmarked) [compound 152] | 5 | 0
O=C(O)c1cc(NS(=O)(=O)c2cccc3nsnc23)cc(C(=O)O)c1 [compound 153] | 5 | 0
O=C(O)CNC(=S)N(Cc1ccccc1)Cc1cccs1 [compound 154] | 5 | 0
Cc1ccc2nc(NC(=S)NC(=O)c3cccs3)sc2c1 [compound 155] | 5 | 26
O=C(O)c1ccccc1C(=O)c1cccs1 [compound 156] | 5 | 22
NS(=O)(=O)c1ccc(NCc2cccc(Cl)c2Cl)cc1 [compound 157] | 5 | 0
CSc1sc(C(=O)O)c(I)c1S(=O)(=O)C(C)C [compound 158] | 4 | 36
O=C(O)C1=C(c2cc([N+](=O)[O-])ccc2O)N=S=N1 [compound 159] | 4 | 1
Cc1ccc(-c2nnc(SCC(=O)O)[nH]2)cc1 [compound 160] | 4 | 0
N=C(NNS(=O)(=O)c1ccccc1)c1ccccn1 [compound 161] | 4 | 68
Cc1ccc(S(=O)(=O)/N=C(\N)c2ccc(F)cc2)cc1 [compound 162] | 4 | 0
CS(=O)(=O)N(CC(=O)Nc1ccccc1Br)c1ccc(Cl)cc1 [compound 163] | 4 | 54
Nc1cc(=O)[nH]c(SCC(=O)Nc2ccc(S(N)(=O)=O)cc2)n1 [compound 164] | 4 | 32
O=[N+]([O-])c1cc(Cl)ccc1NCCCNS(=O)(=O)c1ccccc1 [compound 165] | 4 | 0
O=C(O)c1cccc(-n2nc(O)ccc2=O)c1 [compound 166] | 4 | 19
O=C(CSc1nc2ccccc2c(=O)[nH]1)NCc1ccco1 [compound 167] | 4 | 0
